The source of these data is paper PMC2290058 (The Journal of Cell Biology, 1992).

In series [1] the target is CSPG binding to 33-kD fragment. Details: species or system human. As to conditions: inhibitor 500 ug/ml, 2 h, 4°C; CSPG about 7,000 dpm; buffer control <50.
For series [2], the target named is tryptic/catheptic 33-kD carboxyl-terminal heparin binding fragment of human plasma fibronectin A-chains (human). Description: ligand affinity column chromatography, competition.
Series [3] relates to A375SM human melanoma cells. The experiment in a line: Promotion of melanoma cell adhesion to coated substrata. The format is cell-based. As to conditions: for amount of coated ligand that promoted half maximal cell adhesion: peptide/OVA conjugate on Immulon 1 polystyrene wells, 30-min assay.
A further series relates to anti-FN-C/H-III IgG. The experiment in a line: ELISA of purified anti-FN-C/H-III IgG. The class given is binding, rabbit. As to conditions: coated substrata; not shown. Background: In an ELISA, binding on a coated surface is turned into a signal by an enzyme label.
In series [4] the test system is A375SM human melanoma cells. The class given is cell-based. The conditions noted are these: for effect of ctDX (alphaDX) on cell adhesion to peptide: 1 mM inactive analogue, FN-C/H-III Fig. 5A, others not shown.
For series [5], the system named is A375SM human melanoma cells. The format is cell-based.
The subject of another series is alpha4 integrin subunit. Description: Flow cytometry, cell surface expression of alpha4 integrin after treatment. The conditions noted are these: 1 mM xyloside 24 h (Fig. 2) or chondroitinase ABC (not shown); mAb P4C2. The format is cell-based, human.
Another series concerns beta1 integrin subunit. The experiment in a line: Flow cytometry, cell surface expression of beta1 integrin after treatment. The class given is cell-based, human. As to conditions: 1 mM xyloside 24 h (Fig. 2) or chondroitinase ABC (not shown); mAb P4C10.
Series [6] deals with A375SM human melanoma cells. The experiment in a line: Cytotoxicity check of treatments. The class given is cell-based. As to conditions: trypan blue exclusion; 3H-TdR or [35S]methionine incorporation; not shown.
Series [7] relates to purified melanoma cell CSPG. Description: Binding of purified melanoma CSPG or CS to peptide/OVA affinity columns. Details: species or system human.
For series [8] the following is noted: earlier work, ref McCarthy et al., 1988a, 1990, Haugen et al.; cited from earlier work.
Setting [9] is: wells coated with 100 nmole FN-C/H-III/OVA (Fig. 5A).

Regarding “OVA/OVA: ovalbumin coupled to ovalbumin, control conjugate”, the “CSPG in flow through of 33-kD fragment affinity column” value in series [1] was found to be 123 dpm.
“cell surface chondroitin sulfate proteoglycan (CSPG) purified from A375SM human melanoma cells”: in series [2], the radioactivity bound to the 33-kD fragment column, buffer alone amounted to 6980 dpm.
YRVRVTPKEKTGPMKE [FN-C/H-III]: the “promotion of melanoma cell adhesion” value in [3] (FN-C/H-III/OVA coated wells, 30-min assay (Fig. 4A)) is listed as “promoted melanoma cell adhesion”. In series [3], the “amount of coated ligand that promoted half maximal cell adhesion” value amounted to 100 nmol. In addition, in the series on anti-FN-C/H-III IgG, the “recognition by anti-FN-C/H-III IgG in ELISA” value is given as “specifically recognized”. Moreover, the “effect of /3DX on cell adhesion to FN-C/H-III” value in series [4] (1 mM /3DX, wells coated with 100 nmole FN-C/H-III/OVA (Fig. 5A)) is listed as “inhibited”. Further, the “effect of ctDX (alphaDX) on cell adhesion to peptide” value in [4] is recorded as “not by heparitinase or t~DX”. Further, in [4] (setting [9]), the “effect of chondroitinase ABC on cell adhesion to FN-C/H-III” value is given as “inhibited” and the “effect of heparitinase on cell adhesion to FN-C/H-III” value is given as “not by heparitinase”. Further, the “effect of anti-alpha4 integrin mAb P4C2 on cell adhesion to peptide” value in [5] (P4C2, FN-C/H-III coated substrata) is reported as “did not inhibit cell adhesion”.
As to chondroitinase ABC, the “cell surface alpha4 integrin level compared to untreated controls” value with alpha4 integrin subunit was “identical”. The “cell surface beta1 integrin level compared to untreated controls” value in the series with beta1 integrin subunit was “identical”. Also, the “cytotoxic effect as cause of the inhibition of cell adhesion” value in series [6] is given as “not due to cytotoxic”.
On to KNNQKSEPLIGRKKT [FN-C/H-II], for which the “amount of coated ligand that promoted half maximal cell adhesion” value in [3] worked out at 20 nmol. In the series on anti-FN-C/H-III IgG, the “recognition by anti-FN-C/H-III IgG in ELISA” value is on record as “did not recognize”. Moreover, in series [4], the “effect of ctDX (alphaDX) on cell adhesion to peptide” value is given as “resistant”. Further, in series [4] (approximate, stated in text for chondroitinase ABC or /3DX), the “inhibition of cell adhesion by chondroitinase ABC or /3DX” value is given as ~ 50%. The “effect of anti-alpha5 integrin mAb P1D6 on cell adhesion to peptide” value in [5] (P1D6 (Fig. 8), mean of triplicate) is given as “did not inhibit”. Further, the “inhibition of cell adhesion to peptide by anti-alpha4 integrin mAb P4C2” value in series [5] (P4C2, not shown) is given as 50-60%. Also, the “CSPG binding affinity compared with FN-C/H-III” value in series [7] (affinity column, Discussion) is given as “lower affinity than that observed for FN-C/H-III”. Further, in series [7] (peptide/OVA column, applied in 0.05 M NaCl (Fig. 7)), the “binding of purified CSPG to peptide affinity column” value is “bound purified CSPG”. Also, the heparin binding entry in [8] is reported as “bind heparin”.
As for `O=[N+]([O-])c1ccc(O[C@@H]2OC[C@@H](O)[C@H](O)[C@H]2O)cc1` [/3DX, p-nitrophenyl-/3-o-xylopyranoside], the “cell surface alpha4 integrin level compared to untreated controls” value in the series on alpha4 integrin subunit is listed as “identical”. Besides, the “cell surface beta1 integrin level compared to untreated controls” value in the series on beta1 integrin subunit was “identical”. For the same molecule, the “cytotoxic effect as cause of the inhibition of cell adhesion” value in [6] is “not due to cytotoxic”.
In the case of `O=[N+]([O-])c1ccc(O[C@H]2OC[C@@H](O)[C@H](O)[C@H]2O)cc1` [ctDX, p-Nitrophenyl-ct-o-xylopyranoside], the “cytotoxic effect as cause of the inhibition of cell adhesion” value in series [6] is recorded as “not due to cytotoxic”.
